Assays:
[1] = test system: MDA(Malondialdehyde); assay: Malondialdehyde measurement after partial ischemia and reperfusion; details: cerebral cortex; 30 min ischemia, 3 hours reperfusion; 3-week treatment; mean±S.E. (n=6)
[2] = test system: pyramidal neuronal cells at CA1 (Ammon's horn) area of the hippocampus; assay: Histopathological examination of hippocampus after complete ischemia and reperfusion (cresyl-violet staining); format: in vivo, Mongolian gerbil
Procedure: Gerbils of both control and test groups were anesthetized with injection of pentobarbital sodium at a dose of 50 mg/kg and the carotid arteries on both sides were closed for 5 minutes to induce complete ischemia. After 7 days from initiation of reperfusion, tissues were examined by means of cresyl-violet staining.
Tissue examination under cresyl-violet staining mentioned above was done as follows. Excised cerebellum was cut into slices using sliding microtome and the slices were treated sequentially with xylene and alcohol for five minutes and finally, soaked into distilled water for another 5 minutes. Then, the slice was stained with cresyl-violet which had been prepared in advance.
After staining, the slice was washed one time for 30 minutes with flowing water, followed by dehydrating in alcohol and subsequent two time washings with xylene for 10 minutes. Then, a cover glass was placed on and the specimen was examined under optical microscope.
In the cases of complete ischemia and subsequent reperfusion, biochemical changes will appear initially but some morphological changes may result after a few days. […]

[3] = test system: SOD(Superoxide dismutase); assay: SOD activity after partial ischemia and reperfusion; format: in vivo, Sprague-Dawley rats; details: cerebral cortex; 30 min ischemia, 3 hours reperfusion; 3-week treatment; mean±S.E. (n=6)
Procedure: The supernatant was used as sample.
Previously, a test tube containing 2.3 mℓ of phosphate buffer with pH 7.8, 300 µℓ of 0.5 mM Na-xanthine, 100 µℓ of 50 µm K-cyanide and 100 µℓ of 2.4 mM Na-deoxycholate was prepared and kept in a water bath of 25 °C. To this test tube, 300 µℓ of 0.1 mM ferricytochrome and sample were added.
Then. the solution was transferred to a cell, 100 µℓ of xanthine oxidase was added, a sealing tape was placed on the cell and, while closing well with fingers, the cell was carefully shaken to mix. Changes in absorbance were measured and recorded for one minute at the wavelength of 550 nm.

[4] = test system: cerebral cortex of ischaemic rats; assay: Dopamine and its metabolites concentrations in partial ischemia (HPLC-ECD); details: vs control, Figure 3
[5] = test system: glutathione(GSH) peroxidase; assay: Glutathione peroxidase activity after partial ischemia and reperfusion; details: cerebral cortex; 30 min ischemia, 3 hours reperfusion; 3-week treatment; mean±S.E. (n=6)
[6] = test system: rats with memory loss induced by scopolamine; assay: 8-arm radial maze test; format: in vivo, Sprague-Dawley rats; details: selegiline 2 mg/kg/day and/or Ginkgo biloba extract 48 mg/kg/day p.o. for 3 weeks; scopolamine 6 mg/kg; compared with control group; Figure 2
Procedure: (§1) To evaluate effects on memory and learning functions, rats of each group were challenged with injection of scopolamine, a drug which cause memory loss and then, subjected to the following tests.
According to 01 ton and Samuelson methods[J. Exp. Psychol. Anim. Behav. Proc. 2, 97(1976)], 8-arm radial maze test system was used. That is, rats of each group were placed in the center of the eight 65-cm arms of the maze test system, which are radially stretched, and 45 mg each of pellet type feed was placed at the end of each arm. Rats were trained to visit the arm-ends to get the pellet type feeds. In real experiment, rats were pre-treated with intraperitoneal injection of scopolamine at a dose of 6 mg/kg as a challenge and subjected to the test after 30 minutes from injection.
Test was repeated for fifty(50) times. Smaller visit errors indicate gained improvements in memory and learning functions.
In order to induce memory loss, scopolamine was injected to the rats of both normal and test groups which received drug treatment for 3 weeks and then the rats were placed in the center of the 8-arm maze test system to record numbers of visit errors to the respective arms.

[7] = test system: rats with memory loss induced by scopolamine; assay: Passive avoidance response test (step-through shuttle box); format: in vivo, Sprague-Dawley rats; details: selegiline 2 mg/kg/day and/or Ginkgo biloba extract 48 mg/kg/day p.o. for 3 weeks; scopolamine 6 mg/kg; Figure 1
Procedure: as §1
Rats of each group were previously subjected to the adaptation training and subsequent exercises in a shuttle box of step-through type. In the real experiment, scopolamine at a dose of 6 mg/kg was given intraperitoneally and, after 30 minutes, passive avoidance responses were determined. Longer latency in response time indicate improved memory and learning fuctions.
In a step-through passive avoidance test, rats of both normal and test group treated with drugs for 3 weeks were put in a shuttle box and tested for latency time required for avoidance response after being given with scopolamine injection to induce memory loss and the results are shown in Figure 1.

[8] = test system: cerebral cortex of ischemic rats; assay: Energy metabolites in the cerebral cortex in partial ischemia; details: 3-week treatment, mean±S.E. (n=6)

In the case of `C#CCN(C)[C@H](C)Cc1ccccc1` [Selegiline], the MDA [1] is reported as 1.80±0.22 nmol/mg protein, the “protection of pyramidal cells at CA1 Ammon's horn site of the hippocampus” value ([2]; 5 min complete ischemia, 7 days reperfusion, 3-week treatment, Figures 4e-4j) is reported as “did not show any effects of significance for protection of the cells” and the “Nerve Cell Density” value ([2]; CA1 site of the hippocampus, mean ± standard error (n=3-4)) is reported as 45±10 /mm. The SOD activity [3] was 0.42±0.04 units/mg protein, the content of dopamine ([4]; 3-week p.o. selegiline 2 mg/kg/day and/or Ginkgo biloba extract 48 mg/kg/day) was “significant increases” and the “contents of HVA(Homovanillic acid)” value ([4]; 3-week p.o. treatment) was “decreased significantly”. The GSH peroxidase [5] was 2.04±0.22 units/mg protein, the visit errors [6] was “tended to decrease” and the “avoidance response time (latency)” value [7] was “significant increase”. It also gave an ATP [8] of 1.12±0.04 µmol /g wet wt, a Glucose [8] of 1.21 ±0.02 µmol/g wet wt and a Lactate [8] of 5.42±0.15 µmol/g wet wt. The Pyruvate [8] was 0.10±0.011 µmol/g wet wt.

Source: patent publication EP1171146B1, “PHARMACEUTICAL CO[…] GINKGO BILOBA EXTRACT USEFUL FOR TREATING DEMENTIA” (priority 1999, dated 2000)
